Reference: ChEMBL document CHEMBL1151879, “Discovery of novel benzene 1,3-dicarboxylic acid inhibitors of bacterial MurD and MurE ligases by structure-based virtual screening approach” (Bioorg Med Chem Lett, 2009)

What was measured:
[1] = test system: Enterococcus faecalis; assay: Antibacterial activity against Enterococcus faecalis ATCC 29212; format: functional
[2] = test system: Staphylococcus aureus; assay: Antibacterial activity against Staphylococcus aureus ATCC 29213; format: functional
[3] = test system: Pseudomonas aeruginosa; assay: Antibacterial activity against Pseudomonas aeruginosa ATCC 27853; format: functional
[4] = test system: Escherichia coli; assay: Antibacterial activity against Escherichia coli ATCC 25922; format: functional
[5] = Inhibition of Escherichia coli MurD
[6] = Inhibition of MurE assessed as residual activity
[7] = Inhibition of MurD
[8] = Inhibition of Escherichia coli MurE after 15 mins by malachite green assay
[9] = test system: Escherichia coli; assay: Inhibition of Escherichia coli MurD assessed as residual activity at 100 uM after 15 mins by malachite green assay
[10] = test system: Escherichia coli; assay: Inhibition of Escherichia coli MurE assessed as residual activity at 100 uM after 15 mins by malachite green assay
[11] = test system: Escherichia coli; assay: Inhibition of Escherichia coli MurE assessed as residual activity at 250 uM after 15 mins by malachite green assay
[12] = test system: Escherichia coli; assay: Inhibition of Escherichia coli MurD assessed as residual activity at 250 uM after 15 mins by malachite green assay
[13] = Inhibition of Escherichia coli MurD after 15 mins by malachite green assay

## COC(=O)CC[C@@H](NC(=O)c1ccc(/C=C2\SC(=S)NC2=O)cc1)C(=O)OC
[1]
  MBC: > 128 µg/mL
  MIC: > 128 µg/mL
[2]
  MBC: > 128 µg/mL
  MIC: > 128 µg/mL
[3]
  MBC: > 128 µg/mL
  MIC: > 128 µg/mL
[4]
  MBC: > 128 µg/mL
  MIC: > 128 µg/mL

## O=C(O)CC[C@@H](NS(=O)(=O)c1ccc2cc(OCCCc3ccccc3)ccc2c1)C(=O)O
[5]
  IC50: 180 µM

## C[C@@H](NS(=O)(=O)Cc1ccc([N+](=O)[O-])cc1)C(=O)N[C@H](C)P(=O)(O)C[C@@H](CC(=O)O)C(=O)O
[6]
  Activity: 8%
[5]
  IC50: 78 µM

## N#Cc1ccc(COc2ccc3cc(S(=O)(=O)N[C@H](CCC(=O)O)C(=O)O)ccc3c2)cc1
[5]
  IC50: 134 µM

## O=C(O)CC[C@@H](NC(=O)c1ccc(CNc2ccc(/C=C3\SC(=S)NC3=O)cc2)cc1)C(=O)O
[1]
  MBC: > 128 µg/mL
  MIC: > 128 µg/mL
[2]
  MBC: > 128 µg/mL
  MIC: > 128 µg/mL
[3]
  MBC: > 128 µg/mL
  MIC: > 128 µg/mL
[4]
  MBC: > 128 µg/mL
  MIC: > 128 µg/mL

## CCCCOc1ccc2cc(S(=O)(=O)N[C@@H](CCC(=O)O)C(=O)O)ccc2c1
[7]
  IC50: 710 µM

## Cc1cc(/C=C2/C(=O)NC(=S)N(c3ccc(Cl)cc3)C2=O)c(C)n1-c1cc(C(=O)O)cc(C(=O)O)c1
[8]
  IC50: 97 µM
[9]
  Activity: 69%

## Cc1cc(C=C2C(=O)NC(=S)NC2=O)c(C)n1-c1cc(C(=O)O)cc(C(=O)O)c1
[10]
  Activity: 76%
[9]
  Activity: 99%

## COc1ccc(-c2ccc(/C=C3\SC(=S)N(C(CCC(=O)O)C(=O)O)C3=O)o2)c([N+](=O)[O-])c1 (stereo not drawn)
[10]
  Activity: 70%
[11]
  Activity: 70%
[9]
  Activity: 87%

## O=C(O)CC[C@H](NS(=O)(=O)c1ccc2cc(O)ccc2c1)C(=O)O
[5]
  IC50: 90 µM

## O=C(O)c1cc(C(=O)O)cc(-c2ccc(/C=C3/SC(=S)N(NC(=O)c4cccs4)C3=O)o2)c1
[12]
  Activity: 82%
[11]
  Activity: 81%

## O=C(O)c1cc(C(=O)O)cc(-c2ccc(/C=C3/SC(=S)N(c4ccc5c(c4)OCO5)C3=O)o2)c1
[8]
  IC50: 32 µM
[13]
  IC50: 270 µM

## CCc1ccccc1N1C(=O)/C(=C\c2cc(C)n(-c3cc(C(=O)O)cc(C(=O)O)c3)c2C)C(=O)NC1=S
[10]
  Activity: 55%
[9]
  Activity: 92%

## CCOc1ccc2nc(SCC(=O)Nc3cc(C(=O)O)cc(C(=O)O)c3)sc2c1
[10]
  Activity: 84%
[9]
  Activity: 98%

## CCCCCOc1ccc2cc(S(=O)(=O)N[C@H](CCC(=O)O)C(=O)O)ccc2c1
[5]
  IC50: 239 µM

## O=C(O)CC[C@@H](NC(=O)c1ccc(/C=C2\SC(=S)NC2=O)cc1)C(=O)O
[1]
  MBC: > 128 µg/mL
  MIC: > 128 µg/mL
[2]
  MBC: > 128 µg/mL
  MIC: > 128 µg/mL
[3]
  MBC: > 128 µg/mL
  MIC: > 128 µg/mL
[4]
  MBC: > 128 µg/mL
  MIC: > 128 µg/mL

## CCCCOc1ccc2cc(S(=O)(=O)N[C@H](CCC(=O)O)C(=O)O)ccc2c1
[7]
  IC50: 276 µM

## COc1cccc(/C=C2\SC(=S)N(C(CCC(=O)O)C(=O)O)C2=O)c1 (stereo not drawn)
[10]
  Activity: 89%
[9]
  Activity: 98%

## Cc1cc(/C=C2/C(=O)NC(=S)N(c3cccc(Cl)c3Cl)C2=O)c(C)n1-c1cc(C(=O)O)cc(C(=O)O)c1
[8]
  IC50: 79 µM
[9]
  Activity: 83%

## C[C@@H](NC(=O)/C=C/c1ccc2c(c1)OCO2)P(=O)(O)C[C@H](CCC(=O)O)C(=O)O
[5]
  IC50: 95 µM

## CCOc1ccc2[nH]c(SCC(=O)Nc3cc(C(=O)O)cc(C(=O)O)c3)nc2c1
[10]
  Activity: 95%
[9]
  Activity: 89%

## Cc1cc(/C=C2/C(=O)NC(=S)N(c3cccc(Cl)c3)C2=O)c(C)n1-c1cc(C(=O)O)cc(C(=O)O)c1
[8]
  IC50: 104 µM
[9]
  Activity: 90%

## C[C@@H](NS(=O)(=O)Cc1ccc([N+](=O)[O-])cc1)C(=O)N[C@H](C)P(=O)(O)C[C@H](CCC(=O)O)C(=O)O
[5]
  IC50: 78 µM

## O=C(CSc1nc2ccccc2s1)Nc1cc(C(=O)O)cc(C(=O)O)c1
[10]
  Activity: 94%
[9]
  Activity: 97%

## O=C(O)CCC(C(=O)O)N1C(=O)/C(=C/c2ccc(-c3ccc([N+](=O)[O-])cc3)o2)SC1=S (stereo not drawn)
[8]
  IC50: 61 µM
[9]
  Activity: 74%

## Cc1cc(/C=C2/C(=O)NC(=S)N(c3ccccc3)C2=O)c(C)n1-c1cc(C(=O)O)cc(C(=O)O)c1
[8]
  IC50: 89 µM

## CCOC(=O)COc1ccc2cc(S(=O)(=O)N[C@H](CCC(=O)O)C(=O)O)ccc2c1
[5]
  IC50: 192 µM
